pIC50: −log10 of the molar value. Where two headings read alike, the source gives them in different places. *1 amine or outer side, *2 acyl side, *3 side chain or, on linkers, in order; H or OH if unused. Where a SMILES comes first, the peptide text is derived from it. Bridges are numbered along the chain shown (N, C = ends). [ ]: non-standard residue; d: D form. ξ: configuration not given here. Phe(3,4,5-F3) = N[C@@H](Cc1cc(F)c(F)c(F)c1)C(=O)O; Phe(3,4-F2) = N[C@@H](Cc1ccc(F)c(F)c1)C(=O)O; NMePhe(4-F) = CN[C@@H](Cc1ccc(F)cc1)C(=O)O; NMeW = CN[C@@H](Cc1c[nH]c2ccccc12)C(=O)O; Phe(4-F) = N[C@@H](Cc1ccc(F)cc1)C(=O)O; d(cisHyp) = O=C(O)[C@H]1C[C@@H](O)CN1; Bta = N[C@@H](Cc1csc2ccccc12)C(=O)O; Hyp = O=C(O)[C@@H]1C[C@@H](O)CN1; NMeF = CN[C@@H](Cc1ccccc1)C(=O)O; X1 = O=C([C@H]1COCCN1[*:1])[*:2]; dHyp = O=C(O)[C@H]1C[C@H](O)CN1; NMehSer = CN[C@@H](CCO)C(=O)O; NMeNle = CCCC[C@H](NC)C(=O)O; Pip = O=C(O)[C@@H]1CCCCN1; dPip = O=C(O)[C@H]1CCCCN1; hSer = N[C@@H](CCO)C(=O)O; NMeA = CN[C@@H](C)C(=O)O; Orn = NCCC[C@H](N)C(=O)O; Dab = NCC[C@H](N)C(=O)O; Dap = NC[C@H](N)C(=O)O; ξP = O=C(O)C1CCCN1; ξC = NC(CS)C(=O)O; Sar = CNCC(=O)O
Target: T1, Human PD-L1/PD-1 (Homo sapiens, UniProt Q9NZQ7)
T1 construct: TVMV protease cleavage site (C); made in house; host or cells: HEK293T cells
Assay: HTRF Human PD-L1/PD-1 binding assay (PD-1-Ig/PD-L1-His)
Details: PD-L1-His 10 nM, PD-1-Ig 20 nM
Method in brief: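 Truncated Fc-fused human PD-1 (aa 25-167) at 20 nM and His-tagged PD-L1 (aa 18-239) at 10 nM final are used, with peptides preincubated 15 min with PD-L1. Detection uses europium-cryptate anti-Ig and APC anti-His antibodies; 665/620 nm ratio.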

[1] = class symbol, read-out: HTRF Human PD-L1/PD-1 Binding Assay IC50 Range

T1 sequence (Q9NZQ7 with tags, fused parts or gaps): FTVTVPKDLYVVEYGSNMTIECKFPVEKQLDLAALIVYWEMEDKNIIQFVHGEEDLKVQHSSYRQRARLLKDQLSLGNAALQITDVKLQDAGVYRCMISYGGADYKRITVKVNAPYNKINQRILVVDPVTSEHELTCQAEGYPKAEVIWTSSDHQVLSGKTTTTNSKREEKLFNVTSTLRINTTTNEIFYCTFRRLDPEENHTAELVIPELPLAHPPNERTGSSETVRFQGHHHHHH

SMILES | pIC50 [1] | pIC50 (read-out: HTRF Human PD-L1/PD-1 Binding Assay IC50)
CCCC[C@H]1C(=O)N(C)[C@@H](CCCC)C(=O)NCC(=O)N[C@H](C(=O)NCC(N)=O)CSCC(=O)N[C@@H](Cc2ccc(O)cc2)C(=O)N(C)[C@@H](C)C(=O)N[C@@H](CC(N)=O)C(=O)N2CCC[C@H]2C(=O)NCC(=O)N[C@@H](CCC(N)=O)C(=O)N2C[C@H](O)C[C@H]2C(=O)N[C@@H](Cc2c[nH]c3ccccc23)C(=O)N[C@@H](CO)C(=O)N[C@@H](Cc2c[nH]c3ccccc23)C(=O)N1C [Example 5175] ({CH2CO}-Y[NMeA]NPGQ[Hyp]WSW[NMeNle][NMeNle]GCG-NH2; thioether N-14) | 8.00 to 9.00 | –
CCCC[C@H]1C(=O)N2CCC[C@@H]2C(=O)N[C@@H](CC(=O)O)C(=O)N[C@@H](C(C)C)C(=O)N(C)[C@@H](Cc2ccccc2)C(=O)N[C@@H](CCC(=O)O)C(=O)N2CCC[C@@H]2C(=O)N[C@@H](Cc2c[nH]c3ccccc23)C(=O)N[C@@H](Cc2ccc(O)cc2)C(=O)N[C@@H](CC(C)C)C(=O)N[C@H](C(=O)NCC(N)=O)CSCC(=O)N[C@@H](Cc2ccc(F)cc2)C(=O)N(C)[C@@H](Cc2ccccc2)C(=O)N1C [Example 10107] ({CH2CO}-[Phe(4-F)][NMeF][NMeNle][dP]DV[NMeF]E[dP]WYLCG-NH2; thioether N-13) | 8.00 to 9.00 | –
CCCC[C@H]1C(=O)N2CCC[C@@H]2C(=O)N[C@@H](CO)C(=O)N[C@@H](C(C)C)C(=O)N(C)[C@@H](Cc2ccccc2)C(=O)N[C@@H](Cc2ccc(O)cc2)C(=O)N(C)CC(=O)N[C@@H](Cc2c[nH]c3ccccc23)C(=O)N[C@@H](Cc2ccc(O)cc2)C(=O)N[C@@H](CC(C)C)C(=O)N[C@H](C(=O)NCC(N)=O)CSCC(=O)N[C@@H](Cc2ccccc2)C(=O)N(C)[C@@H](Cc2ccccc2)C(=O)N1C [Example 10062] ({CH2CO}-F[NMeF][NMeNle][dP]SV[NMeF]Y[Sar]WYLCG-NH2; thioether N-13) | 7.00 to 8.00 | –
CCCC[C@H]1C(=O)N[C@@H](CC(N)=O)C(=O)N2CCC[C@H]2C(=O)N[C@@H](CO)C(=O)N[C@@H](CCO)C(=O)N2CCC[C@H]2C(=O)N[C@@H](Cc2c[nH]c3ccccc23)C(=O)N[C@@H](CO)C(=O)N[C@@H](Cc2c[nH]c3ccccc23)C(=O)N(C)[C@@H](C)C(=O)N(C)[C@@H](C)C(=O)N[C@@H](CCCCN)C(=O)NC(C(=O)NCC(N)=O)CSCC(=O)N[C@@H](Cc2ccc(O)cc2)C(=O)N1C (some centres unmarked) [Example 10208] ({CH2CO}-Y[NMeNle]NPS[hSer]PWSW[NMeA][NMeA]K[ξC]G-NH2; thioether N-14) | 5.00 to 6.00 | –
CCCC[C@H]1C(=O)N2CCC[C@@H]2C(=O)N[C@@H](CC(N)=O)C(=O)N[C@@H](C(C)C)C(=O)N(C)[C@@H](Cc2ccccc2)C(=O)N[C@@H](CC(=O)O)C(=O)N2CCCC[C@@H]2C(=O)N[C@@H](Cc2c[nH]c3ccccc23)C(=O)N[C@@H](Cc2ccc(O)cc2)C(=O)N[C@@H](CC(C)C)C(=O)N[C@H](C(=O)NCC(N)=O)CSCC(=O)N[C@@H](Cc2cc(F)c(F)c(F)c2)C(=O)N(C)[C@@H](Cc2ccc(F)cc2)C(=O)N1C [Example 10584] ({CH2CO}-[Phe(3,4,5-F3)][NMePhe(4-F)][NMeNle][dP]NV[NMeF]D[dPip]WYLCG-NH2; thioether N-13) | 8.00 to 9.00 | –
CCCC[C@H]1C(=O)N[C@@H](CC(C)C)C(=O)N[C@H](C(=O)NCC(N)=O)CSCC(=O)N[C@@H](Cc2ccc(O)cc2)C(=O)N(C)[C@@H](C)C(=O)N[C@@H](CC(N)=O)C(=O)N2CCCC2C(=O)N[C@@H](CN)C(=O)N[C@@H](CC(C)C)C(=O)N2C[C@H](O)C[C@H]2C(=O)N[C@@H](Cc2c[nH]c3ccccc23)C(=O)N[C@@H](CCN)C(=O)N(C)[C@@H](Cc2c[nH]c3ccccc23)C(=O)N(C)[C@@H](CCCC)C(=O)N1C (some centres unmarked) [Example 5265] ({CH2CO}-Y[NMeA]N[ξP][Dap]L[Hyp]W[Dab][NMeW][NMeNle][NMeNle]LCG-NH2; thioether N-14) | 7.00 to 8.00 | –
COCC[C@H]1C(=O)N2C[C@@H](O)C[C@@H]2C(=O)N[C@@H](CC(=O)O)C(=O)N[C@@H](C(C)C)C(=O)N(C)[C@@H](Cc2ccccc2)C(=O)N[C@@H](Cc2ccc(O)cc2)C(=O)N2C[C@@H](O)C[C@@H]2C(=O)N[C@@H](Cc2c[nH]c3ccccc23)C(=O)N[C@@H](Cc2ccc(O)cc2)C(=O)N[C@@H](CCCN)C(=O)N[C@H](C(=O)NCC(N)=O)CSCC(=O)N[C@@H](Cc2ccc(F)c(F)c2)C(=O)N(C)[C@@H](Cc2ccccc2)C(=O)N1C [Example 9237] ({CH2CO}-[Phe(3,4-F2)][NMeF][NMehSer](Me)[dHyp]DV[NMeF]Y[dHyp]WY[Orn]CG-NH2; thioether N-13) | 8.00 to 9.00 | –
CCCC[C@H]1C(=O)N2C[C@H](O)C[C@@H]2C(=O)N[C@@H](CC(=O)O)C(=O)N[C@@H](C(C)C)C(=O)N(C)[C@@H](Cc2ccccc2)C(=O)N[C@@H](CCC(=O)O)C(=O)N2CCOC[C@@H]2C(=O)N[C@@H](Cc2c[nH]c3ccccc23)C(=O)N[C@@H](Cc2ccc(O)cc2)C(=O)N[C@@H](CCOC)C(=O)N[C@H](C(=O)NCC(N)=O)CSCC(=O)N[C@@H](Cc2cc(F)c(F)c(F)c2)C(=O)N(C)[C@@H](Cc2ccccc2)C(=O)N1C [Example 10178] ({CH2CO}-[Phe(3,4,5-F3)][NMeF][NMeNle][d(cisHyp)]DV[NMeF]E[X1]WY[hSer](Me)CG-NH2; thioether N-13) | 8.00 to 9.00 | –
CCCC[C@H]1C(=O)N(C)[C@@H](CCCC)C(=O)N[C@@H](CCCNC(=N)N)C(=O)NC(C(=O)NCC(N)=O)CSCC(=O)N[C@@H](Cc2ccc(O)cc2)C(=O)N(C)[C@@H](C)C(=O)N[C@@H](CC(N)=O)C(=O)N2CCC[C@H]2C(=O)N[C@@H](CC(N)=O)C(=O)N[C@@H](CC(N)=O)C(=O)N2CCC[C@H]2C(=O)N[C@@H](Cc2c[nH]c3ccccc23)C(=O)N[C@@H](CO)C(=O)N[C@@H](Cc2c[nH]c3ccccc23)C(=O)N1C (some centres unmarked) [Example 10013] ({CH2CO}-Y[NMeA]NPNNPWSW[NMeNle][NMeNle]R[ξC]G-NH2; thioether N-14) | – | 7.20
CCCC[C@H]1C(=O)N(C)[C@@H](CCCC)C(=O)N[C@@H](CO)C(=O)NC(C(=O)NCC(N)=O)CSCC(=O)N[C@@H](Cc2ccc(O)cc2)C(=O)N(C)[C@@H](C)C(=O)N[C@@H](CC(N)=O)C(=O)N2CCC[C@H]2C(=O)N[C@@H](CC(N)=O)C(=O)N[C@@H](CC(C)C)C(=O)N2C[C@H](O)C[C@H]2C(=O)N[C@@H](Cc2c[nH]c3ccccc23)C(=O)N[C@@H](CO)C(=O)N[C@@H](Cc2csc3ccccc23)C(=O)N1C (some centres unmarked) [Example 9143] ({CH2CO}-Y[NMeA]NPNL[Hyp]WS[Bta][NMeNle][NMeNle]S[ξC]G-NH2; thioether N-14) | 7.00 to 8.00 | –
CCCC[C@H]1C(=O)N(C)[C@@H](CCCC)C(=O)N[C@@H](C)C(=O)N[C@H](C(=O)NCC(N)=O)CSCC(=O)N[C@@H](Cc2ccc(O)cc2)C(=O)N2CCCC[C@H]2C(=O)N[C@@H](CC(=O)O)C(=O)N2CCC[C@H]2C(=O)N[C@@H](Cc2cnc[nH]2)C(=O)N[C@@H](CCC(N)=O)C(=O)N2C[C@H](O)C[C@H]2C(=O)N[C@@H](Cc2c[nH]c3ccccc23)C(=O)N[C@@H](CO)C(=O)N[C@@H](Cc2csc3ccccc23)C(=O)N1C [Example 1509] ({CH2CO}-Y[Pip]DPHQ[Hyp]WS[Bta][NMeNle][NMeNle]ACG-NH2; thioether N-14) | 7.00 to 8.00 | –

Source: patent US10538555B2, “Macrocyclic inhibitors of the PD-1/PD-L1 and CD80(B7-1)/PD-L1 protein/protein interactions” (BRISTOL-MYERS SQUIBB COMPANY, priority 2014, dated 2020)
